# According to patent US20240299405A1, “APPLICATION OF ATP POTASSIUM CHANNEL MODIFIER IN PREPARATION OF ANTI-DIABETIC NEPHROPATHY DRUG” (HANGZHOU QIAN BIOTECHNOLOGY LTD, priority 2020, published 2024):
# What was measured:
# [1] = test system: STZ diabetic rat models (diabetic nephropathy); assay: Urine microalbumin (mALB) by ELISA in STZ plus high-fat diet diabetic nephropathy rat model; type: in vivo, SD rats; details: for mALB, urine microalbumin value of each KATP agonist: week 30, mean ± SE; for effect on reducing the amount of microalbumin in diabetic nephropathy urine compared with the negative control group: week 30, p<0.05; for mALB, 20 Week: week 20, mean ± SE; for mALB, 24 Week: week 24, mean ± SE; for mALB, 26 Week: week 26, mean ± SE; for mALB, 32 Week: week 32, mean ± SE; for mALB, 35 Week: week 35, mean ± SE
# Text: STZ substantially and excessively damages islet-β cells through chemical toxicity (Saini K, Thompson C, Winterford C M, Walker N I, Cameron D P. Streptozotocin at low doses induces apoptosis and at high doses causes necrosis in a murine pancreatic b cell line, INS1[J]. International Union of Biochemistry and Molecular Biology Life. 1996, 39(6): 1229-1236). The pathophysiological characteristics of STZ modeled rats are relatively close to that of humans. Their blood can be collected repeatedly to monitor index changes and enough kidney tissues can be obtained for subsequent tissue section analysis. Therefore, STZ diabetic rat models are used. In addition, due to the high toxicity of STZ, multiple injections at low doses can establish better models. Keep feeding a high-fat diet daily after modeling until the end of the experiment. A high-fat diet can cause diabetic nephropathy in STZ rats.
# Urine microalbumin (mALB) is an early diagnostic index of kidney injury, and mALB was used as an indicator to test whether rats entered diabetic nephropathy, and rat weight and blood glucose levels were used to observe whether the model was successful.
# mALB is one of the most important monitoring indicators of nephropathy. […] Since the measurement results of mALB in humans and mice are different. The difference between the dosing group (group C) and the negative control group (group B) is used to judge whether the test results of this experiment are valid. The normal mALB value in this experiment was only used as a reference value, which is using the data of group A (blank control group).
# At the beginning of the experiment, urine and blood of all rats were collected for the detection of the required indicators, and the initial indicators were used as a timely reference for the disease progression of the rats. After the start of the experiment, all rats were sampled with the Elisa kit every other month to detect mALB and other data.
# Rat urine collection: urine is collected by metabolic cage, urine is collected after 24 h, the total amount of urine is recorded, and the urine output at 24 h is calculated. Take 1 ml of urine, centrifuge and take the supernatant and store at −80° C. for testing.
# A 24 h urine sample was collected from rats for testing, and the collected sample was centrifuged at 15 min, centrifuged at 4° C. at 1000 ref for 20 min, and the mALB value was detected by supernatant or stored at −20° C.
# Before starting the experiment, you need to do the following: • (1) Place all reagents (including specimens) in the room and equilibrate to room temperature (18-25° C.) before use. • (2) The standard is diluted to the corresponding gradient. Take a bottle of standard, add 1 mL of standard diluent (at this time the concentration is 1000 μg/mL), mix gently, let stand at room temperature for 10 minutes, and gently shake every 2 minutes to mix. After mixing, dilute it to 100 μg/mL, take 4 EP tubes (add 600 μL of standard dilute to each EP tube), triple dilute the standard from a concentration of 100 μg/mL to 33.33 μg/mL, 11.11 μg/mL, 3.70 μg/mL, 1.23 μg/mL, and use the standard dilution as a blank well (0 μg/mL). • (3) Working solution of the detection solution A: add 150 μL of reagent dilution to the mother liquor of the detection solution A, stand at room temperature for 10 minutes, and shake gently every 2 minutes to have a well-mix. Before use, dilute with the detection diluent A at 1:100, and mix the solution well with the shaker. Calculate the required amount at 50 μL/well for dilution before use (0.1-0.2 mL more needs to be prepared). • (4) Working solution of the detection solution B: Detection solution B needs to be centrifuged at 5000 ref for 10 s before each use to deposition the liquid from the tube wall or cap to the bottom of the tube. Immediately before use, dilute with the detection diluent B at 1:100, and mix them well with the shaker. […]
# STZ diabetic rats [2] = details: rat, in vivo, 50 mg/kg/day
# Protocol: (§1) Due to the large body surface area of rats, the doses of groups C, D and E were equivalent to 0.095 mg/kg, 0.95 mg/kg, and 9.5 mg/kg in humans (according to the literature: Anroop B Nair, Shery Jacob. A simple practice guide for dose conversion between animals and human. Journal of Basic and Clinical Pharmacy. 2016, 7(2):27-31.), with 95% binding capacity to albumin, similar to humans. All groups of rats were fed high-fat feed.
# In addition, rats in the high-dose E group all died before diabetic nephropathy was modeled, of which 13 died in the first four months and the other 5 died in the fifth and sixth months. It was speculated that the death may be related to the high blood glucose elevation of diabetic rats. Therefore, the statistics of Table 1, FIG. 1, FIG. 2, FIG. 3 and FIG. 5 are not included those rats in group E.
# STZ diabetic rats [3] = assay: Glomerular filtration rate in STZ diabetic rats; type: in vivo, SD rats; details: groups C and D (0.5 and 5 mg/kg) versus group B
# Protocol: as §1
# rat kidney = assay: HE staining of rat kidney sections (glomeruli, tubules); type: in vivo, SD rats; details: 5 mg/kg (medium-dose) group, six-month rat, renal HE×400
# Text: In addition, clinically patients with nephropathy will have an increase in glomerular volume and a higher number of cells in the early stage, and with the progression of the disease, there will be widening of the mesangial area, the mesangial cells and mesangial stroma will increase, and the tubular epithelial cells will have cell edema, that is, often called granular degeneration or vacuolar degeneration, tubulointerstitial fibrosis and other symptoms. In this experiment, the glomerular volume changes of rat kidney sections were observed by HE staining, and the results of renal staining sections in each experimental group are shown in FIG. 5.
# [4] = group C, 0.5 mg/kg per day gavage
# [5] = group D, 5 mg/kg per day gavage
smiles,measurement,setting,value
C/N=C(/S)[C@]1(c2cccnc2)CCCC[S@@+]1[O-] [Aprikalim],"mALB, urine microalbumin value of each KATP agonist",[1]; 1 mg/kg group,59.7 ± 25.4 µg/mL
same,effect on reducing the amount of microalbumin in diabetic nephropathy urine compared with the negative control group,[1],significant effect
CC1(C)Oc2ccc(C#N)cc2C(N2CCCC2=O)C1O (centres unmarked) [Cromakalim],"mALB, urine microalbumin value of each KATP agonist",[1]; 1 mg/kg group,77.6 ± 45.6 µg/mL
same,effect on reducing the amount of microalbumin in diabetic nephropathy urine compared with the negative control group,[1],significant effect
"CC1=Nc2ccc(Cl)cc2S(=O)(=O)N1 [Diazoxide, 7-chloro-3-methyl-2-hydro-1,2,4-benzothiadiazine 1,1-dioxide]",progression of diabetic nephropathy,[1]; 0.5 mg/kg,can delay the progression of diabetic nephropathy
same,"mALB, 20 Week",[1]; [4],15.6 ± 2.9 µg/mL
same,"mALB, 24 Week","[1]; group C, 0.5 mg/kg per day gavage, 0.5 mg/kg/day",18.2 ± 4.7 µg/mL
same,"mALB, 26 Week",[1]; [4],28.4 ± 10.8 µg/mL
same,"mALB, 32 Week",[1]; [4],149.5 ± 50.3 µg/mL
same,"mALB, 35 Week",[1]; [4],108.0 ± 33.7 µg/mL
same,"mALB, 20 Week",[1]; [5],14.5 ± 3.0 µg/mL
same,"mALB, 24 Week","[1]; group D, 5 mg/kg per day gavage, 5 mg/kg/day",19.8 ± 4.3 µg/mL
same,"mALB, 26 Week",[1]; [5],19.9 ± 7.4 µg/mL
same,"mALB, 32 Week",[1]; [5],105.5 ± 38.9 µg/mL
same,"mALB, 35 Week",[1]; [5],52.8 ± 23.4 µg/mL
same,death of rats,STZ diabetic rats [2],all died
same,effect on the increase of compensatory glomerular filtration rate,STZ diabetic rats [3],could reduce the increase of glomerular filtration rate
same,"kidney histology, HE staining",rat kidney,some glomeruli significantly increased in size
same,"kidney histology, HE staining",rat kidney; listed as diazoxide,tubular vacuolar degeneration
O=C(NCCO[N+](=O)[O-])c1cccnc1 [Nicorandil],"mALB, urine microalbumin value of each KATP agonist",[1]; 0.5 mg/kg group,78.2 ± 35.1 µg/mL
same,effect on reducing the amount of microalbumin in diabetic nephropathy urine compared with the negative control group,[1],significant effect
CC(N/C(=N\C#N)Nc1ccncc1)C(C)(C)C (centres unmarked) [Pinacidil],"mALB, urine microalbumin value of each KATP agonist",[1]; 1 mg/kg group,99.7 ± 50.7 µg/mL
same,effect on reducing the amount of microalbumin in diabetic nephropathy urine compared with the negative control group,[1],significant effect
Nc1cc(N2CCCCC2)nc(N)[n+]1[O-] [minoxidil],"mALB, urine microalbumin value of each KATP agonist",[1]; 0.5 mg/kg group,130.4 ± 60.3 µg/mL
COC(=O)C1=C(C)NC(C)=C(C(=O)OCCN(C)Cc2ccccc2)C1c1cccc([N+](=O)[O-])c1 (centres unmarked) [nicardipine],"mALB, urine microalbumin value of each KATP agonist",[1]; 5 mg/kg group,55.4 ± 25.6 µg/mL
CCC1NC(=O)c2cc(S(N)(=O)=O)c(Cl)cc2N1 (centres unmarked) [quinethazone],"mALB, urine microalbumin value of each KATP agonist",[1]; 1 mg/kg group,114.6 ± 45.3 µg/mL
